Data as given in US20110166126A1, “Compositions and Methods for Modulating Endophthalmitis Using Fluoroquinolones” (priority 2007, published 2011).
Values after ≈ are worked out from the molar mass of the structure shown. “Also recorded” adds a separate entry of the source.

What was measured:
[1] = system: THP-1 monocytes; assay: IL-1β and LPS induced IL-8 release from THP-1 monocytes (experiment 1); format: cell-based, Human; settings: 300, 100, 60, 30 and 10 ng/mL, 18 h
Procedure: Human monocytic (THP-1) cells were pre-cultured in basal RPMI-1640 medium (commercially available, for example, from Sigma Aldrich) containing 10% dialyzed FBS in a T-75 flask. After 24 h, cells were seeded in 48-well plates in RPMI-1640 medium containing 2% dialyzed FBS at a density of 5.0×10^5 cells/mL with vehicle, IL-1β (300, 100, 60, 30 and 10 ng/mL) and LPS (1 μg/mL) for 18 h (Table 3-1). Each treatment was performed in triplicate. Media were collected and used for determination of cytokine content using a cytokine Luminex kit. The alamarBlue assay was performed to evaluate the cell viability.
(§1) Luminex: Median fluorescence intensity (MFI) was used to obtain the concentration of each cytokines in pg/ml based on the standard curve of each cytokine assayed by Luminex. The linear range of the standard curve for each cytokine was used for determination of cytokine concentration.
Data was expressed as mean±SD. To determine induction of cytokine release into the medium by IL-1β or LPS, statistical analysis was performed using one-way ANOVA-Dunnett's test, and P<0.05 was considered statistically significant.

[2] = system: primary human corneal epithelial cells (HCEpiC); settings: earlier study (PH07038); comparable or better potency compared to moxifloxacin; cited from earlier work
[3] = system: IL-1β induced IL-8 release in THP-1 monocytes; assay: Effect on IL-1β-induced cytokine (IL-8) release from human THP-1 monocytes (Luminex); format: cell-based; settings: for Effect on IL-1β induced IL-8 release / IC50: 18 h; for IC50: Homo sapiens, THP-1, 30 ng/mL IL-1β, four-parameter logistic fit, read-out: IC50 for inhibition of IL-1β induced IL-8 release
Procedure: Each treatment was performed in triplicate. Media was collected by centrifugation and used for determination of cytokine content using a cytokine Luminex kit. The alamarBlue assay was performed to evaluate cell viability.
After determining the optimal concentration of IL-1β to induce cytokine release (30 ng/mL), cells were pre-cultured in RPMI-1640 medium containing 10% dialyzed FBS in a T-75 flask. […] Each treatment was performed in triplicate. Media were collected and used for determination of cytokine content using a cytokine Luminex kit. AlamarBlue assay was performed to evaluate the cell viability.
as §1
To determine inhibition of IL-1β-induced cytokine release into the medium by dexamethasone or fluoroquinolone compounds as well cell viability, statistical analysis was performed using one-way ANOVA-Dunnett's test on raw data, and P<0.05 was considered statistically significant.
A concentration vs. effect curve was plotted for experiment 2, using averaged data from selected samples. […] Data were fitted to a re-parameterized four-parameter logistic equation using similar methodology as that previously described, and utilizing the statistical analysis software JMP8.

[4] = system: LPS-stimulated cytokine production in human THP-1 monocytes; assay: Inhibition of LPS-induced cytokine expression in human THP-1 monocytes (multiplex Luminex); format: cell-based; parameters: key to Inhibition of LPS-stimulated G-CSF production / Inhibition of LPS-stimulated GM-CSF production / Inhibition of LPS-stimulated IL-12p40 production / Inhibition of LPS-stimulated IL-1α production / Inhibition of LPS-stimulated IL-1β production / Inhibition of LPS-stimulated IL-1ra production / Inhibition of LPS-stimulated IL-6 production / Inhibition of LPS-stimulated IL-8 production / Inhibition of LPS-stimulated IP-10 production / Inhibition of LPS-stimulated MCP-1 production / Inhibition of LPS-stimulated MIP-1α production / Inhibition of LPS-stimulated VEGF production: “X” signifies significant inhibition at a particular concentration
Procedure: Human THP-1 monocytes (ATCC TIB 202) were purchased from American Type Culture Collection (Manassas, Va.) and maintained in RPMI 1640 medium (Invitrogen, Carlsbad, Calif.) supplemented with 10% fetal bovine serum (“FBS”, Invitrogen, Carlsbad, Calif.), 100 U/mL of penicillin (Invitrogen, Carlsbad, Calif.), and 100 μg/mL of streptomycin (Invitrogen, Carlsbad, Calif.) at 37° C. in a humidified incubator with 5% CO2. THP-1 cells were pre-cultured in RPMI 1640 medium containing 10% dialyzed serum for 24 h. […] Each treatment was performed in triplicate.
Samples were analyzed using multiplex bead technology, which utilizes microspheres as the solid support for immunoassays and allows the analysis of all cytokines from each sample (D. A. Vignali, J. Immunol. Methods, Vol. 243, 243-255 (2000)). Sixteen cytokines were measured according to the manufacturer's instructions. Briefly, 50 μl, of medium samples were incubated with antibody-coated capture beads overnight at 4° C. Washed beads were further incubated with biotin-labeled anti-human cytokine antibodies for 2 hours at room temperature followed by incubation with streptavidin-phycoerythrin for 30 min. Samples were analyzed using Luminex 200™ (Luminex, Austin, Tex.) and Beadview software v1.0 (Upstate Cell Signaling Solutions, Temecula, Calif.). Standard curves of known concentrations of recombinant human cytokines were used to convert fluorescence units (median fluorescence intensity) to cytokine concentration in pg/mL. Only the linear portions of the standard curves were used to quantify cytokine concentrations, and in instances where the fluorescence reading exceeded the linear range of the standard curve, an appropriate dilution was performed to ensure that the concentration was in the linear portion of the curve.
All cytokine concentrations (pg/mL) were expressed as mean±standard deviation. Statistical analysis comparing effects of treatment across groups was performed using a one-way ANOVA with a Dunnett's post-hoc comparison test using either vehicle control or LPS treatment as references. For all assays, p≦0.05 was predetermined as the criterion of statistical significance.

[5] = system: LPS-stimulated cytokine production in human THP-1 monocytes; settings: earlier study [8] (PH07025); better potency compared to moxifloxacin; cited from earlier work
[6] = 1 μg/mL, 10 μg/mL LPS, 18 hours
[7] = 10 μg/mL, 10 μg/mL LPS, 18 hours
[8] = 30 μg/mL, 10 μg/mL LPS, 18 hours
[9] = LPS-induced cytokine production, THP-1 monocytes

Q: With “IL-1β: interleukin-1β, used to induce cytokine release in THP-1 cells” as the molecule, how does the “Stimulation of IL-8 release” value [1] read?
A: stimulated

Q: What does the source list for N[C@@H]1CCCCN(c2c(F)cc3c(=O)c(C(=O)O)cn(C4CC4)c3c2Cl)C1 [BOL-303224-A, besifloxacin]?
A: Effect on IL-1β-stimulated cytokine expression in HCEpiC [2]: significantly inhibited; Effect on IL-1β induced IL-8 release ([3]; 10 μg/mL): significantly reduced; also recorded: diminished; Effect on IL-1β induced IL-8 release ([3]; 30 μg/mL and 10 μg/mL): significantly reduced; IC50 [3]: 7.5 µg/mL (≈ 19 µM); Concentration needed to reduce IL-1β-induced IL-8 release relative to moxifloxacin ([3]; THP-1 cells): at a lower concentration than moxifloxacin; Inhibition of LPS-stimulated IL-1α production ([4]; 0.1 μg/mL, 10 μg/mL LPS, 18 hours): X; Inhibition of LPS-stimulated G-CSF production [4, 6]: X; Inhibition of LPS-stimulated IL-1ra production [4, 6]: X; Inhibition of LPS-stimulated IL-1α production [4, 6]: X; Inhibition of LPS-stimulated IL-6 production [4, 6]: X; Inhibition of LPS-stimulated G-CSF production [4, 7]: X; Inhibition of LPS-stimulated IL-1ra production [4, 7]: X; Inhibition of LPS-stimulated IL-1α production [4, 7]: X; Inhibition of LPS-stimulated IL-6 production [4, 7]: X; Inhibition of LPS-stimulated VEGF production [4, 7]: X; Inhibition of LPS-stimulated G-CSF production [4, 8]: X; Inhibition of LPS-stimulated GM-CSF production [4, 8]: X; Inhibition of LPS-stimulated IL-1ra production [4, 8]: X; Inhibition of LPS-stimulated IL-1α production [4, 8]: X; Inhibition of LPS-stimulated IL-1β production [4, 8]: X; Inhibition of LPS-stimulated IL-6 production [4, 8]: X; Inhibition of LPS-stimulated IL-8 production [4, 8]: X; Inhibition of LPS-stimulated IL-12p40 production [4, 8]: X; Inhibition of LPS-stimulated IP-10 production [4, 8]: X; Inhibition of LPS-stimulated MCP-1 production [4, 8]: X; Inhibition of LPS-stimulated MIP-1α production [4, 8]: X; Inhibition of LPS-stimulated VEGF production [4, 8]: X; Effect on LPS-stimulated production of RANTES ([4]; 0.1-30 μg/mL, THP-1 monocytes): Neither moxifloxacin nor compound having Formula IV altered; Effect on LPS-stimulated production of fractalkine ([4]; 0.1-30 μg/mL, THP-1 monocytes): Neither moxifloxacin nor compound having Formula IV altered; Effects on GM-CSF, IL-1β, IL-8, IP-10, MCP-1, and MIP-1α after LPS stimulation (comparison of the two fluoroquinolones) ([4]; FIG. 1): comparable effects; Relative potency on G-CSF, IL-1α, IL-1ra, IL-6, and VEGF ([4]; FIG. 2, LPS-stimulated THP-1 monocytes): better potency than moxifloxacin; Concentration at which a significant inhibitory effect was observed for G-CSF [4, 9]: 1 µg/mL; Concentration at which a significant inhibitory effect was observed for GM-CSF [4, 9]: 30 µg/mL; Concentration at which a significant inhibitory effect was observed for IL-1α [4, 9]: 0.1 µg/mL; Concentration at which a significant inhibitory effect was observed for IL-1β [4, 9]: 30 µg/mL; Concentration at which a significant inhibitory effect was observed for IL-6 [4, 9]: 1 µg/mL; Concentration at which a significant inhibitory effect was observed for IL-8 [4, 9]: 30 µg/mL; Concentration at which a significant inhibitory effect was observed for IL-12p40 [4, 9]: 30 µg/mL; Concentration at which a significant inhibitory effect was observed for IP-10 [4, 9]: 30 µg/mL; Concentration at which a significant inhibitory effect was observed for MCP-1 [4, 9]: 30 µg/mL; Concentration at which a significant inhibitory effect was observed for MIP-1α [4, 9]: 30 µg/mL; Concentration as low as which a significant inhibitory effect was seen on IL-1α ([4]; LPS-stimulated THP-1 monocytes): 100 ng/mL; Concentration at which a significant inhibitory effect was seen on G-CSF ([4]; LPS-stimulated THP-1 monocytes): 1000 ng/mL; Concentration at which a significant inhibitory effect was seen on IL-1ra ([4]; LPS-stimulated THP-1 monocytes): 1000 ng/mL; Concentration at which a significant inhibitory effect was seen on IL-6 ([4]; LPS-stimulated THP-1 monocytes): 1000 ng/mL; Effect on lipopolysaccharide (LPS)-stimulated cytokine expression in THP-1 human monocytes [5]: significantly inhibited

Q: With COc1c(N2C[C@@H]3CCCN[C@@H]3C2)c(F)cc2c(=O)c(C(=O)O)cn(C3CC3)c12 [Moxifloxacin, moxifloxacin, reference compound] as the molecule, how does the IC50 [3] read?
A: 10.9 ± 4.8 µg/mL (≈ 27.2 µM)

Q: And the “Inhibition of LPS-stimulated IL-12p40 production” value [4, 6]?
A: X

Q: What about the “Inhibition of LPS-stimulated IL-1ra production” value [4, 7] of the same molecule?
A: X

Q: And the “Inhibition of LPS-stimulated IL-6 production” value [4, 7]?
A: X

Q: What about the “Inhibition of LPS-stimulated IL-12p40 production” value [4, 7] of the same molecule?
A: X

Q: What about the “Inhibition of LPS-stimulated IL-1ra production” value [4, 8] of the same molecule?
A: X

Q: And the “Inhibition of LPS-stimulated IL-1α production” value [4, 8]?
A: X

Q: What about the “Inhibition of LPS-stimulated IL-1β production” value [4, 8] of the same molecule?
A: X

Q: And the “Inhibition of LPS-stimulated IL-8 production” value [4, 8]?
A: X

Q: What about the “Inhibition of LPS-stimulated IL-12p40 production” value [4, 8] of the same molecule?
A: X

Q: What about the “Inhibition of LPS-stimulated IP-10 production” value [4, 8] of the same molecule?
A: X

Q: What about the “Inhibition of LPS-stimulated MIP-1α production” value [4, 8] of the same molecule?
A: X

Q: What about the “Inhibition of LPS-stimulated VEGF production” value [4, 8] of the same molecule?
A: X

Q: And the “Concentration at which a significant inhibitory effect was observed for IL-1ra” value [4, 9]?
A: 10 µg/mL

Q: What about the “Concentration at which a significant inhibitory effect was observed for IL-1α” value [4, 9] of the same molecule?
A: 30 µg/mL

Q: And the “Concentration at which a significant inhibitory effect was observed for IL-1β” value [4, 9]?
A: 30 µg/mL

Q: What about the “Concentration at which a significant inhibitory effect was observed for IL-6” value [4, 9] of the same molecule?
A: 10 µg/mL

Q: And the “Concentration at which a significant inhibitory effect was observed for IL-8” value [4, 9]?
A: 30 µg/mL

Q: What about the “Concentration at which a significant inhibitory effect was observed for IL-12p40” value [4, 9] of the same molecule?
A: 1 µg/mL

Q: What about the “Concentration at which a significant inhibitory effect was observed for IP-10” value [4, 9] of the same molecule?
A: 30 µg/mL

Q: What about the “Concentration at which a significant inhibitory effect was observed for MIP-1α” value [4, 9] of the same molecule?
A: 30 µg/mL
